According to ChEMBL document CHEMBL1123875, “Plant antitumor agents. 25. Total synthesis and antileukemic activity of ring A substituted camptothecin analogues. Structure-activity correlations” (J Med Chem, 1987):
Values after ≈ are worked out from the molar mass of the structure shown. Active and inactive are the calls of the source. The rule behind the calls is not given here.

Assays:
Mus musculus [1] = test: In vivo antileukemic activity against L-1210 mouse leukemia cells expressed as KE (log10 of initial tumor cell population minus log10 of tumor cell population at end of treatment); assay type: functional
[2] = In vitro cytotoxic activity against KB cell culture.; assay type: functional; conditions: Homo sapiens, read-out: ED50 (the source's name)
L1210 [3] = test: Toxic dose against L1210 mouse leukemia cells was determined; assay type: toxicity
Mus musculus [4] = test: In vivo antileukemic activity against L-1210 mouse leukemia cells given as number of animals cured out of 6; assay type: functional
Mus musculus [5] = test: In vivo antileukemic activity against L-1210 mouse leukemia cells expressed as % T/C (median survival time of treated/control animals) x 100 after 2.5 mg/kg administration of dose; assay type: functional
L1210 [6] = test: Active dose range for antileukemic activity against L1210 mouse leukemia cells was reported; dose range may vary from 0.25 to 5.0; assay type: functional
L1210 [7] = test: Active dose range for antileukemic activity against L1210 mouse leukemia cells was reported; dose range may vary from 10 to 80; assay type: functional
Mus musculus [8] = test: In vivo antileukemic activity against L-1210 mouse leukemia cells expressed as % T/C (median survival time of treated/control animals) x 100 after 40 mg/kg administration of dose; assay type: functional
L1210 [9] = test: Active dose range for antileukemic activity against L1210 mouse leukemia cells was reported; dose range may vary from 10 to 20; assay type: functional
Mus musculus [10] = test: In vivo antileukemic activity against L-1210 mouse leukemia cells expressed as % T/C (median survival time of treated/control animals) x 100 after 10 mg/kg administration of dose; assay type: functional
Mus musculus [11] = test: In vivo antileukemic activity against L-1210 mouse leukemia cells expressed as […] (log10 of initial tumor cell population minus log10 of tumor cell population at end of treatment); assay type: functional
L1210 [12] = test: Active dose range for antileukemic activity against L1210 mouse leukemia cells was reported; assay type: functional
Mus musculus [13] = test: In vivo antileukemic activity against L-1210 mouse leukemia cells and number of animals cured out of 6; assay type: functional
Mus musculus [14] = test: In vivo antileukemic activity against L-1210 mouse leukemia cells expressed as % T/C (median survival time of treated/control animals) x 100; assay type: functional
L1210 [15] = test: In vivo antileukemic activity against L-1210 mouse leukemia cells expressed as % T/C (median survival time of treated/control animals) x 100; In active; assay type: functional, organism-based
KB [16] = test: In vitro cytotoxic activity against KB cell culture, expressed as ED50 (concentration resulting in a 50% cell number reduction) was determined; In active; assay type: functional, cell-based; conditions: Homo sapiens
L1210 [17] = test: Active dose range for antileukemic activity against L1210 mouse leukemia cells was reported; dose range may vary from 7.5 to 15.5; assay type: functional
Mus musculus [18] = test: In vivo antileukemic activity against L-1210 mouse leukemia cells expressed as % T/C (median survival time of treated/control animals) x 100 after 15.5 mg/kg administration of dose; assay type: functional
Mus musculus [19] = test: (§1) In vivo antileukemic activity against L-1210 mouse leukemia cells expressed as % T/C (median survival time of treated/control animals) x 100; IA means inactive; assay type: functional, organism-based
Mus musculus [20] = test: as §1; assay type: functional, organism-based; remark: listed apart in the source
KB [21] = test: In vitro cytotoxic activity against KB cell culture, expressed as ED50 (concentration resulting in a 50% cell number reduction) was determined; IA means inactive; assay type: functional, cell-based; conditions: Homo sapiens
Mus musculus [22] = test: In vivo antileukemic activity against L-1210 mouse leukemia cells expressed as % T/C (median survival time of treated/control animals) x 100 after 3.75 mg/kg administration of dose; assay type: functional
L1210 [23] = test: Active dose range for antileukemic activity against L1210 mouse leukemia cells was reported; dose range may vary from 2 to 15.5; assay type: functional
L1210 [24] = test: Active dose range for antileukemic activity against L1210 mouse leukemia cells was reported; dose range may vary from 20 to 80; assay type: functional
Mus musculus [25] = test: In vivo antileukemic activity against L-1210 mouse leukemia cells expressed as % T/C (median survival time of treated/control animals) x 100 after 80 mg/kg administration of dose; assay type: functional
Mus musculus [26] = test: In vivo antileukemic activity against L-1210 mouse leukemia cells expressed as % T/C (median survival time of treated/control animals) x 100 after 60 mg/kg administration of dose; assay type: functional
L1210 [27] = test: Active dose range for antileukemic activity against L1210 mouse leukemia cells was reported; dose range may vary from 7.5 to 60; assay type: functional
Mus musculus [28] = test: In vivo antileukemic activity against L-1210 mouse leukemia cells expressed as % T/C (median survival time of treated/control animals) x 100 after 2 mg/kg administration of dose; assay type: functional
L1210 [29] = test: Active dose range for antileukemic activity against L1210 mouse leukemia cells was reported 2 to 4; assay type: functional

| SMILES | KE (Mus musculus [1]) | EC50 [2] | Toxic dose (L1210 [3]) | No. of cures (Mus musculus [4]) | other results |
| --- | --- | --- | --- | --- | --- |
| CC[C@@]1(O)C(=O)OCc2c1cc1n(c2=O)Cc2cc3c(N)cccc3nc2-1 [9-AMINOCAMPTOTHECIN] | ≥ 5.97 log10 units | 0.02 µg/mL (≈ 0.055 µM) | 10 mg/kg | 4 | T/C (Mus musculus [5]): 361%; Active dose range (L1210 [6]): 5 mg/kg |
| CCC1(O)C(=O)OCc2c1cc1n(c2=O)Cc2cc3ccc(N)cc3nc2-1 (centres undefined) | 0.29 log10 units | 0.02 µg/mL (≈ 0.055 µM) | > 80 mg/kg | 0 | Active dose range (L1210 [7]): 80 mg/kg; T/C (Mus musculus [8]): 147% |
| CCC1(O)C(=O)OCc2c1cc1n(c2=O)Cc2cc3ccc(C#N)cc3nc2-1 (centres undefined) | ≥ 5.79 log10 units | 0.3 µg/mL (≈ 0.803 µM) | 20 mg/kg | 3 | Active dose range (L1210 [9]): <=20 mg kg-1; T/C (Mus musculus [10]): 365% |
| CCC1(O)C(=O)OCc2c1cc1n(c2=O)Cc2cc3cc(O)c(O)cc3nc2-1 (centres undefined) | – | 1 µg/mL (≈ 2.63 µM) | > 80 mg/kg | – | T/C (Mus musculus [11]): 0.87%; Active dose range (L1210 [12]): 10 mg/kg; No. of cures (Mus musculus [13]): 1; T/C (Mus musculus [14]): 153% |
| CCC1(O)C(=O)OCc2c1cc1n(c2=O)Cc2cc3ccc(/C=N\N=C(N)N)cc3nc2-1 (racemic) | – | – | – | – | T/C (L1210 [15]): inactive; ED50 (KB [16]): inactive |
| CCC1(O)C(=O)OCc2c1cc1n(c2=O)Cc2cc3cc([N+](=O)[O-])ccc3nc2-1 (centres undefined) | ≥ 5.86 log10 units | 0.3 µg/mL (≈ 0.763 µM) | 31 mg/kg | 1 | Active dose range (L1210 [17]): 15.5 mg/kg; T/C (Mus musculus [18]): 219% |
| CCC1(O)C(=O)OCc2c1cc1n(c2=O)Cc2cc3cc(Cl)ccc3nc2-1 (centres undefined) | ≥ 5.97 log10 units | 0.01 µg/mL (≈ 0.0261 µM) | 40 mg/kg | 2 | Active dose range (L1210 [9]): 20 mg/kg; T/C (Mus musculus [10]): 280% |
| CCC1(O)C(=O)OCc2c1cc1n(c2=O)Cc2cc3ccc(C(=O)[O-])cc3nc2-1.[Na+] (centres undefined) | – | 0.3 µg/mL | – | – | T/C (Mus musculus [19]): inactive; T/C (Mus musculus [20]): inactive; ED50 (KB [21]): inactive |
| CCC1(O)C(=O)OCc2c1cc1n(c2=O)Cc2cc3cc(N)ccc3nc2-1 (centres undefined) | ≥ 5.97 log10 units | 0.03 µg/mL (≈ 0.0826 µM) | 32 mg/kg | 3 | T/C (Mus musculus [22]): 365%; Active dose range (L1210 [23]): 15.5 mg/kg |
| CCC1(O)C(=O)OCc2c1cc1n(c2=O)Cc2cc3ccc(C)cc3nc2-1 (centres undefined) | -0.68 log10 units | 0.9 µg/mL (≈ 2.48 µM) | > 80 mg/kg | 0 | T/C (Mus musculus [8]): 136%; Active dose range (L1210 [24]): 80 mg/kg |
| CCC1(O)C(=O)OCc2c1cc1n(c2=O)Cc2cc3cc(OC)c(OC)cc3nc2-1 (centres undefined) | – | 9 µg/mL (≈ 22 µM) | – | – | T/C (Mus musculus [19]): inactive |
| Br.CCC1(O)C(=O)OCc2c1cc1n(c2=O)Cc2cc3cc(O)c(O)cc3nc2-1 (centres undefined) | – | 3 µg/mL | > 80 mg/kg | – | T/C (Mus musculus [11]): 2.62%; Active dose range (L1210 [12]): 10 mg/kg; No. of cures (Mus musculus [13]): 0; T/C (Mus musculus [14]): 173% |
| CCC1(O)C(=O)OCc2c1cc1n(c2=O)Cc2cc3ccc(CN)cc3nc2-1 (centres undefined) [listing 1 of 2 here] | – | 2 µg/mL (≈ 5.3 µM) | – | – | – |
| CCC1(O)C(=O)OCc2c1cc1n(c2=O)Cc2cc3ccc(C(F)(F)F)cc3nc2-1 (centres undefined) | – | 0.9 µg/mL (≈ 2.16 µM) | – | – | T/C (Mus musculus [19]): inactive |
| CCC1(O)C(=O)OCc2c1cc1n(c2=O)Cc2cc3ccc([N+](=O)[O-])cc3nc2-1 (centres undefined) | 0.29 log10 units | 3 µg/mL (≈ 7.63 µM) | > 80 mg/kg | 0 | T/C (Mus musculus [25]): 147%; Active dose range (L1210 [24]): 80 mg/kg |
| CCC1(O)C(=O)OCc2c1cc1n(c2=O)Cc2cc3ccc(CN)cc3nc2-1.Cl (centres undefined) | – | 4 µg/mL | – | – | – |
| CCC1(O)C(=O)OCc2c1cc1n(c2=O)Cc2cc3ccc(CN)cc3nc2-1 (centres undefined) [listing 2 of 2 here] | – | – | – | – | T/C (Mus musculus [19]): inactive |
| CCC1(O)C(=O)OCc2c1cc1n(c2=O)Cc2cc3ccc(CO)cc3nc2-1 (centres undefined) | – | 0.3 µg/mL (≈ 0.793 µM) | – | – | T/C (Mus musculus [19]): inactive |
| CCC1(O)C(=O)OCc2c1cc1n(c2=O)Cc2cc3ccc(O)cc3nc2-1 (centres undefined) | ≥ 5.68 log10 units | 0.02 µg/mL (≈ 0.0549 µM) | > 60 mg/kg | 3 | T/C (Mus musculus [26]): 357%; Active dose range (L1210 [27]): 60 mg/kg |
| CCC1(O)C(=O)OCc2c1cc1n(c2=O)Cc2cc3ccc(N(C)C)cc3nc2-1 (centres undefined) | – | – | – | – | T/C (Mus musculus [19]): inactive; ED50 (KB [21]): inactive |
| CCC1(O)C(=O)OCc2c1cc1n(c2=O)Cc2cc3ccc(C(=O)OC)cc3nc2-1 (centres undefined) | – | 5 µg/mL (≈ 12.3 µM) | – | – | T/C (Mus musculus [19]): inactive |
| CCC1(O)C(=O)OCc2c1cc1n(c2=O)Cc2cc3ccc(C=O)cc3nc2-1 (centres undefined) | – | 5 µg/mL (≈ 13.3 µM) | – | – | T/C (L1210 [15]): inactive |
| CCC1(O)C(=O)OCc2c1cc1n(c2=O)Cc2cc3cc4c(cc3nc2-1)OCO4 (centres undefined) | ≥ 5.97 log10 units | 0.007 µg/mL (≈ 0.0178 µM) | > 8 mg/kg | 2 | T/C (Mus musculus [28]): 325%; Active dose range (L1210 [29]): 4 mg/kg |
| CCC1(O)C(=O)OCc2c1cc1n(c2=O)Cc2cc3cc(C)ccc3nc2-1 (centres undefined) | 4.66 log10 units | 0.08 µg/mL (≈ 0.221 µM) | > 80 mg/kg | 0 | Active dose range (L1210 [7]): 80 mg/kg; T/C (Mus musculus [10]): 207% |
